From ChEMBL document CHEMBL1146924, “Beta-diketo acids with purine nucleobase scaffolds: novel, selective inhibitors of the strand transfer step of HIV integrase” (Bioorg Med Chem Lett, 2006)

Tests used:
[1] = biological target: T1, Human immunodeficiency virus type 1 integrase (Human immunodeficiency virus 1, UniProt Q7ZJM1); experiment: Inhibition of HIV1 integrase 3'-processing step
[2] = biological target: T1, Human immunodeficiency virus type 1 integrase; experiment: Inhibition of HIV1 integrase strand transfer step

T1 sequence (Q7ZJM1 whole entry): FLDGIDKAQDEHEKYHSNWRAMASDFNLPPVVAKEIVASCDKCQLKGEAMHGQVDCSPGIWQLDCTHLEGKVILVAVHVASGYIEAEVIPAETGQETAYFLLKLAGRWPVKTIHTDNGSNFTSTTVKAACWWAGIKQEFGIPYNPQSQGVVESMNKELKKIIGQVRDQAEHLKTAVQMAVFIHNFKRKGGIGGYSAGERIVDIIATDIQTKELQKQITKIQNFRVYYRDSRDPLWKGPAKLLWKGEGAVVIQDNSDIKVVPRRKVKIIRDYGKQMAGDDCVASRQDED

Row | IC50 [1] [µM] | IC50 [2] [µM] | SMILES
1 | 30 | 2.7 | O=C(O)C(=O)/C=C(\O)c1nc2c(ncn2Cc2ccccc2)c(=O)n1Cc1ccccc1
2 | 100 | 10 | O=C(O)C(=O)/C=C(/O)c1nc2cncnc2n1Cc1ccccc1
3 | 31.5 | 4.1 | O=C(O)C(=O)/C=C(/O)c1nc2c(=O)n(Cc3ccccc3)cnc2n1Cc1ccccc1
4 | 1000 | 790 | O=C(O)C(=O)/C=C(\O)c1ncnc2c1ncn2Cc1ccccc1
